# Results from patent US20120220039A1, “METHOD AND SYSTEM FOR DETECTING RESIDUAL POISON IN HUMAN BODY” (THE HONG KONG UNIVERSITY OF SCIENCE AND TECHNOLOGY, priority 2009, published 2012).
# Assay: Drug analysis of abuser in different hair segments by HPLC-Chip-MS/MS
# Type: in vivo, human
# Source text: Parent drug and its metabolites normally appear in hair after 5-7 day once administered. Hair normally grows at 0.75-1 cm/month. Drug taking habit or history can be reflected by analysis in different hair segments.
# Hair specimens were collected and cut into different lengths. With the application of different conditions in Examples 1-8, drug distribution in different hair segments was illustrated (FIGS. 29 and 30).
# [1] = Hair segment sample no. 1, hair length 0-4 cm, time 0-3 month
# [2] = Hair segment sample no. 2, hair length 4-8 cm, time 3-6 month
# [3] = Hair segment sample no. 3, hair length 8-12 cm, time 6-9 month
# [4] = Hair segment sample no. 4, hair length 12-16 cm, time 9-12 month
# [5] = Hair segment sample no. 5, hair length 16-20 cm, time 12-15 month
# [6] = Hair segment sample no. 6, hair length 20-24 cm, time 15-18 month
# [7] = Hair segment sample no. 7, hair length 24-28 cm, time 18-21 month
# [8] = Hair segment sample no. 8, hair length 28-32 cm, time 21-24 month
Molecule,Concentration in hair segment [1],Concentration in hair segment [2],Concentration in hair segment [3],Concentration in hair segment [4],Concentration in hair segment [5],Concentration in hair segment [6],Concentration in hair segment [7],Concentration in hair segment [8]
CN[C@@H](C)Cc1ccccc1 [Methamphetamine],117.6 pg/mg,263.6 pg/mg,198.2 pg/mg,201.1 pg/mg,107.3 pg/mg,920 pg/mg,156.3 pg/mg,273.5 pg/mg
Methadone,18.7 pg/mg,18.3 pg/mg,18.4 pg/mg,18.3 pg/mg,18.3 pg/mg,18.3 pg/mg,18.3 pg/mg,18.4 pg/mg
